“And” between values parts separate entries of the source, which are not always exact repeats. Identical values can stand only once. Like-named read-outs stand apart in the source and are kept apart here.
Columns and labels:
[1] = tested on: primary human T cells; assay: IL12 (p70) in lentivirus transduced primary human T cells, Bazedoxifene dose response (MSD assay); assay type: cell-based
Procedure: Primary human T cells were expanded with CD3/CD28 Dynabeads, transduced with lentivirus constructs and expanded for 10 days. Beads were removed and cells were frozen. T cells were later thawed and 100,000 cells were treated overnight with different doses of Bazedoxifene (BZD). Transduction efficiency was assessed by flow cytometry using CD19-Fc staining. The response of IL12 in CD19 CAR-IL12 tandem constructs to increasing concentrations of ligand was measured using OT-001736 construct with increasing doses of BZD starting at 0.01 nM to up to 3 μM for 23 hours. IL12 levels were measured using MSD assay. Controls tested in the experiment included OT-001357, which constitutively expresses IL12 and OT-001407, which is not expected to show any IL12 expression.
Additional ER mutants were tested in primary human T cells as described above, except T cells were treated on day 9 of expansion, and not frozen and thawed prior to the experiment (Table 15).

[2] = Pharmacokinetics of Bazedoxifene in CD-1 mice (plasma, LC-MS-MS); assay type: in vivo; parameters: Plasma Bazedoxifene Concentrations: unit not given here
[3] = 3 mg intravenous (IV); cited from earlier work

## Cc1c(-c2ccc(O)cc2)n(Cc2ccc(OCCN3CCCCCC3)cc2)c2ccc(O)cc12 [Bazedoxifene]
[1]; T-cell, BZD dose response in primary human T cells expressing OT-001736, read-out: EC50 of IL12 induction
  EC50: 200 nM
[1]; primary human T cells expressing OT-001736
  lowest BZD concentration that induced IL12 expression: 0.05 µM
[2]; 10 mg/kg single dose, 0.25 hours post dose, free and bound combined, individual animals
  Plasma Bazedoxifene Concentrations: 0.062 and 0.127 and 0.287
[2]; 10 mg/kg single dose, 0.5 hours post dose, free and bound combined, individual animals
  Plasma Bazedoxifene Concentrations: 0.050 and 0.091
[2]; 10 mg/kg single dose, 1 hours post dose, free and bound combined, individual animals
  Plasma Bazedoxifene Concentrations: 0.089 and 0.105
[2]; 10 mg/kg single dose, 2 hours post dose, free and bound combined, individual animals
  Plasma Bazedoxifene Concentrations: 0.096 and 0.107
[2]; 10 mg/kg single dose, 4 hours post dose, free and bound combined, individual animals
  Plasma Bazedoxifene Concentrations: 0.053 and 0.055
[2]; 10 mg/kg single dose, 7 hours post dose, free and bound combined, individual animals
  Plasma Bazedoxifene Concentrations: 0.036 and 0.035
[2]; 10 mg/kg single dose, 10 hours post dose, free and bound combined, individual animals
  Plasma Bazedoxifene Concentrations: 0.033 and 0.028 and 0.016
[2]; 10 mg/kg single dose, 24 hours post dose, free and bound combined, individual animals
  Plasma Bazedoxifene Concentrations: 0.005 and 0.003 and 0.004
[2]; 100 mg/kg single dose, 0.25 hours post dose, free and bound combined, individual animals
  Plasma Bazedoxifene Concentrations: 1.268 and 0.949 and 2.590
[2]; 100 mg/kg single dose, 0.5 hours post dose, free and bound combined, individual animals
  Plasma Bazedoxifene Concentrations: 2.113 and 2.208 and 4.544
[2]; 100 mg/kg single dose, 1 hours post dose, free and bound combined, individual animals
  Plasma Bazedoxifene Concentrations: 2.590 and 5.138
[2]; 100 mg/kg single dose, 2 hours post dose, free and bound combined, individual animals
  Plasma Bazedoxifene Concentrations: 2.272 and 4.161
[2]; 100 mg/kg single dose, 4 hours post dose, free and bound combined, individual animals
  Plasma Bazedoxifene Concentrations: 1.208 and 1.902
[2]; 100 mg/kg single dose, 7 hours post dose, free and bound combined, individual animals
  Plasma Bazedoxifene Concentrations: 0.894 and 0.463 and 0.970
[2]; 100 mg/kg single dose, 10 hours post dose, free and bound combined, individual animals
  Plasma Bazedoxifene Concentrations: 0.754 and 0.497 and 0.713
[2]; 100 mg/kg single dose, 24 hours post dose, free and bound combined, individual animals
  Plasma Bazedoxifene Concentrations: 0.023 and 0.179 and 0.025
[2]; 200 mg/kg single dose, 0.25 hours post dose, free and bound combined, individual animals
  Plasma Bazedoxifene Concentrations: 1.495 and 1.013
[2]; 200 mg/kg single dose, 0.5 hours post dose, free and bound combined, individual animals
  Plasma Bazedoxifene Concentrations: 2.314 and 1.707
[2]; 200 mg/kg single dose, 1 hours post dose, free and bound combined, individual animals
  Plasma Bazedoxifene Concentrations: 3.397 and 4.013
[2]; 200 mg/kg single dose, 2 hours post dose, free and bound combined, individual animals
  Plasma Bazedoxifene Concentrations: 2.590 and 3.567
[2]; 200 mg/kg single dose, 4 hours post dose, free and bound combined, individual animals
  Plasma Bazedoxifene Concentrations: 1.327 and 2.357
[2]; 200 mg/kg single dose, 7 hours post dose, free and bound combined, individual animals
  Plasma Bazedoxifene Concentrations: 0.866 and 0.726 and 1.189
[2]; 200 mg/kg single dose, 10 hours post dose, free and bound combined, individual animals
  Plasma Bazedoxifene Concentrations: 0.699 and 0.732 and 0.715
[2]; 200 mg/kg single dose, 24 hours post dose, free and bound combined, individual animals
  Plasma Bazedoxifene Concentrations: 0.297 and 0.314 and 0.180
[2]; CD-1, mouse, plasma, oral, 10 mg/kg, 10 mg/kg single dose, 0.5 hours post dose, free and bound combined, individual animals, read-out: Plasma Bazedoxifene Concentrations
  concentration at 0.5 h: 71 nM
[2]; CD-1, mouse, plasma, oral, 10 mg/kg, 10 mg/kg single dose, 1 hours post dose, free and bound combined, individual animals, read-out: Plasma Bazedoxifene Concentrations
  concentration at 1 h: 97 nM
[2]; CD-1, mouse, plasma, oral, 10 mg/kg, 10 mg/kg single dose, 2 hours post dose, free and bound combined, individual animals, read-out: Plasma Bazedoxifene Concentrations
  concentration at 2 h: 77 nM
[2]; CD-1, mouse, plasma, oral, 10 mg/kg, 10 mg/kg single dose, 4 hours post dose, free and bound combined, individual animals, read-out: Plasma Bazedoxifene Concentrations
  concentration at 4 h: 49 nM
[2]; CD-1, mouse, plasma, oral, 10 mg/kg, 10 mg/kg single dose, 7 hours post dose, free and bound combined, individual animals, read-out: Plasma Bazedoxifene Concentrations
  concentration at 7 h: 34 nM
[2]; CD-1, mouse, plasma, oral, 100 mg/kg, 100 mg/kg single dose, 1 hours post dose, free and bound combined, individual animals, read-out: Plasma Bazedoxifene Concentrations
  concentration at 1 h: 3590 nM
[2]; CD-1, mouse, plasma, oral, 100 mg/kg, 100 mg/kg single dose, 2 hours post dose, free and bound combined, individual animals, read-out: Plasma Bazedoxifene Concentrations
  concentration at 2 h: 2820 nM
[2]; CD-1, mouse, plasma, oral, 100 mg/kg, 100 mg/kg single dose, 4 hours post dose, free and bound combined, individual animals, read-out: Plasma Bazedoxifene Concentrations
  concentration at 4 h: 1380 nM
[2]; CD-1, mouse, plasma, oral, 200 mg/kg, 200 mg/kg single dose, 0.25 hours post dose, free and bound combined, individual animals, read-out: Plasma Bazedoxifene Concentrations
  concentration at 0.25 h: 1060 nM
[2]; CD-1, mouse, plasma, oral, 200 mg/kg, 200 mg/kg single dose, 0.5 hours post dose, free and bound combined, individual animals, read-out: Plasma Bazedoxifene Concentrations
  concentration at 0.5 h: 1510 nM
[2]; CD-1, mouse, plasma, oral, 200 mg/kg, 200 mg/kg single dose, 1 hours post dose, free and bound combined, individual animals, read-out: Plasma Bazedoxifene Concentrations
  concentration at 1 h: 2400 nM
[2]; CD-1, mouse, plasma, oral, 200 mg/kg, 200 mg/kg single dose, 2 hours post dose, free and bound combined, individual animals, read-out: Plasma Bazedoxifene Concentrations
  concentration at 2 h: 3270 nM
[2]; CD-1, mouse, plasma, oral, 200 mg/kg, 200 mg/kg single dose, 4 hours post dose, free and bound combined, individual animals, read-out: Plasma Bazedoxifene Concentrations
  concentration at 4 h: 1580 nM
[2]; CD-1, mouse, plasma, dose of 200 mg/kg per os (PO), read-out: Murine Cmax
  Cmax: ~3000 nM
[3]
  Cmax: ~100 nM
